# Measurements published in the supplement of paper PMC10307832.
# Experiments:
# Experiment in all cases: relative viability (nuclei count vs DMSO), 5 days (fraction); higher = more cells survive
# [1] = compound: C[C@@H](N)c1ccc(C(=O)Nc2ccnc3[nH]ccc23)cc1 + Cc1nc(Nc2ncc(C(=O)Nc3c(C)cccc3Cl)s2)cc(N2CCN(CCO)CC2)n1 [Dasatinib] (partner 0.075 µM)
# How it was run: (§1)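 Lung cancer cell lines were pin-tool dosed in 1536-well plates on the day after seeding, with either a lone drug or a fixed anchor-drug dose plus five library-drug doses (not always all listed) in √10 steps. Nuclei were counted on 4× images after 5 days. Relative viability is the ratio of treated-well to vehicle-well nuclei counts, with each value a median of duplicate plates.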
# Tanzisertib + Trametinib = compound: O[C@H]1CC[C@H](Nc2ncc3nc(Nc4c(F)cc(F)cc4F)n([C@H]4CCOC4)c3n2)CC1 [Tanzisertib] + CC(=O)Nc1cccc(-n2c(=O)n(C3CC3)c(=O)c3c(Nc4ccc(I)cc4F)n(C)c(=O)c(C)c32)c1 [Trametinib] (partner 0.02 µM)
# How it was run: as §1
# Tanzisertib + Bortezomib = compound: O[C@H]1CC[C@H](Nc2ncc3nc(Nc4c(F)cc(F)cc4F)n([C@H]4CCOC4)c3n2)CC1 [Tanzisertib] + CC(C)C[C@H](NC(=O)[C@H](Cc1ccccc1)NC(=O)c1cnccn1)B(O)O [Bortezomib] (partner 0.002 µM)
# How it was run: as §1
# [2] = compound: C1CNCCC1C2=CC(=NN2)C3=CC=NC=C3 + Nc1ncn([C@H]2C[C@H](O)[C@@H](CO)O2)c(=O)n1 [Decitabine] (partner 2 µM)
# How it was run: as §1
Cell Line,relative viability ([1]; first compound 0.04 µM),relative viability ([1]; first compound 0.1265 µM),relative viability ([1]; first compound 0.4 µM),relative viability ([1]; first compound 4 µM),relative viability (Tanzisertib + Trametinib; first compound 0.08 µM),relative viability (Tanzisertib + Trametinib; first compound 0.253 µM),relative viability (Tanzisertib + Trametinib; first compound 0.8 µM),relative viability (Tanzisertib + Trametinib; first compound 2.53 µM),relative viability (Tanzisertib + Trametinib; first compound 8 µM),relative viability (Tanzisertib + Bortezomib; first compound 0.08 µM),relative viability (Tanzisertib + Bortezomib; first compound 0.253 µM),relative viability (Tanzisertib + Bortezomib; first compound 0.8 µM),relative viability (Tanzisertib + Bortezomib; first compound 2.53 µM),relative viability (Tanzisertib + Bortezomib; first compound 8 µM),relative viability ([2]; first compound 0.08 µM),relative viability ([2]; first compound 0.8 µM),relative viability ([2]; first compound 2.53 µM),relative viability ([2]; first compound 8 µM),relative viability ([1]; first compound 1.265 µM)
NCI-H1915,0.315,0.262,0.276,0.308,0.31,0.306,0.296,0.268,0.258,0.992,1.07,1,0.978,0.989,0.267,0.249,0.26,0.263,–
NCI-H2009,0.18,0.268,0.199,0.154,0.316,0.274,0.274,0.247,0.21,1.34,1,1.01,1.13,0.968,0.374,0.4,0.343,0.37,0.171
ChaGo-K-1,0.475,0.554,0.541,0.42,0.902,0.896,0.821,0.91,0.832,0.915,1.21,1.07,0.934,0.916,0.496,0.525,0.506,0.529,0.54
COR-L 105,0.247,0.317,0.372,0.216,0.43,0.493,0.485,0.448,0.37,0.818,0.708,0.99,0.877,0.482,0.568,0.729,0.687,0.772,0.241
NCI-H2170,0.774,0.595,0.639,0.528,0.989,0.965,0.927,0.926,0.874,–,–,–,–,–,0.442,0.446,0.487,0.529,0.518
A549,–,–,–,–,–,–,–,–,–,–,–,–,–,–,0.208,0.282,0.302,0.146,–
SW 1573,0.405,0.592,0.433,0.231,0.555,0.514,0.547,0.521,0.456,1.09,1.09,0.946,1.15,0.712,–,0.471,0.711,0.76,0.259
NCI-H1975,0.408,0.459,0.363,0.262,0.396,0.422,0.345,0.349,0.341,0.428,0.467,0.371,0.401,0.347,0.369,0.355,0.399,0.363,0.369
Calu-6,–,–,–,–,–,–,–,–,–,1.02,0.993,1.03,1.06,1.05,–,–,–,–,–
NCI-H1648,–,–,–,–,0.492,0.459,0.51,0.5,0.482,–,–,–,–,–,0.453,0.572,–,0.573,–
NCI-H1623,0.619,0.501,0.602,0.709,–,–,–,–,–,–,–,–,–,–,–,–,–,–,0.21
NCI-H3122,1.06,0.882,0.919,0.915,0.262,0.201,0.273,0.245,0.237,1.06,1.02,1.04,1.03,1.01,0.421,0.453,0.417,0.521,0.455
